Columns and labels:
Assay type in all cases: biochemical
Rabbit LDL = test: Amount of TBARS (Cu^2+-induced oxidation of rabbit LDL); conditions: 5 μM Cu^2+
Description: Rabbit LDL was prepared in accordance with the method of Havel et al. [Havel, R. J. et al., J. Clin. Invest., 34, (1955)]. After adding 5 μM of Cu^2+, the mixture was warmed until a thiobarbituric acid reactive substance (TBARS) was produced. The test compounds were evaluated for their anti-oxidative action with the amount of TBARS being used as an index. [formula]

[1] = target: lipid peroxidation due to the autoxidation of linoleic acid; test: Linoleic acid-MCLA system, Test Case 4; conditions: linoleic acid 10 mM, MCLA 2 μM, 1-butanol, 37° C.; read-out: 50% inhibition concentration
Description: The test compounds were evaluated for their inhibitory effect against lipid peroxidation due to the autoxidation of linoleic acid.
A reaction solution was prepared by mixing linoleic acid and MCLA (2-methyl-6-(p-methoxyphenyl)-3,7-dihydroimidazo[1,2-a]pyrazin-3-one) in 1-butanol and stored in ice until use. An amount of this reaction solution was sampled in a chemiluminescence measuring cell and, immediately thereafter, the intensity of chemiluminescence due to the autoxidation of linoleic acid was measured at 37° C. in a thermostatic bath. A normal chemiluminescence intensity measurement was conducted about 2-4 min later when the chemiluminescence substantially peaked.

[2] = test system: xanthine oxidase (XOD)-hypoxanthine (HX) system (superoxide); test: Xanthine oxidase system (superoxide generating system); conditions: pH 7.4, 37° C.
Description: The test compounds were evaluated under the following conditions for their effect in a reaction due to a xanthine oxidase (XOD)-hypoxanthine (HX) system in aqueous solution.
Xanthine oxidase 0.1 U/ml
Hepes buffer solution (pH 7.4)
(§1) A reaction solution was prepared by mixing hypoxanthine and luminol in the Hepes buffer solution and stored in ice until use. After warming the reaction solution at 37° C. for about 10 min, the reaction was started by addition of the xanthine oxidase solution. A measurement was started right after the addition of xanthine oxidase and subsequent stirring; chemiluminescence intensity was normally measured right after the start of the reaction. In the experimental model, luminol-dependent chemiluminescence induced by superoxide generated by enzymatic reaction of xanthine oxidase was detected, thus enabling the measurement of the reactivity with superoxide.

[3] = test system: lactoperoxidase reaction system (singlet oxygen); test: Lactoperoxidase system (singlet oxygen system); conditions: pH 4.5, 37° C.
Description: The test compounds were evaluated under the following conditions for their effect against a lactoperoxidase reaction system.
Lactoperoxidase 10 μg/ml
Acetate buffer solution (pH 4.5)
as §1, with “hydrogen peroxide, sodium bromide” for “hypoxanthine”, “acetate” for “Hepes”, “lactoperoxidase” for “xanthine oxidase”, “was” for “was normally”, “singlet oxygen” for “superoxide”, “singlet oxygen.” for “superoxide.”

Row | Structure (SMILES) | TBARS produced (%) (Rabbit LDL; at 10^-5 M of compound, 10 µM) | TBARS produced (%) (Rabbit LDL; at 10^-6 M of compound, 1 µM) | IC50 [1] | Chemiluminescence intensity (% of control) ([2]; at 20 μM of compound) | Chemiluminescence intensity (% of control) ([2]; at 200 μM of compound) | Chemiluminescence intensity (% of control) ([3]; at 20 μM of compound) | Chemiluminescence intensity (% of control) ([3]; at 200 μM of compound)
1 | CC(C)CCC1(CCC(C)C)Cc2c(cc(C(C)(C)C)c(O)c2C(C)(C)C)O1 [Compound z, 2,2-Diisoamyl-4,6-Di-tert-Butyl-5-Hydroxy-2,3-Dihydrobenzofuran] | 22.9% | 77.5% | 6 µM | 99.2 % of control | 107.5 % of control | – | –
2 | CC(C)(C)c1cc2c(c(C(C)(C)C)c1O)CC1(CCCCCCC1)O2 [Compound p, 4,6-Di-tert-Butyl-5-Hydroxy-2,3-Dihydrobenzofuran-2-Spiro-1'-Cyclooctane] | 22.0% | 91.8% | – | – | – | – | –
3 | CC1Cc2c(cc(C(C)(C)C)c(O)c2C(C)(C)C)O1 (centres unmarked) [Compound b, 4,6-Di-tert-Butyl-5-Hydroxy-2-Methyl-2,3-Dihydrobenzofuran] | 8.9% | 53.8% | – | – | – | – | –
4 | CCCC1(CCC)Cc2c(cc(C(C)(C)C)c(O)c2C(C)(C)C)O1 [Compound e, 4,6-Di-tert-Butyl-2,2-Di-n-Propyl-5-Hydroxy-2,3-Dihydrobenzofuran] | 13.5% | 86.3% | – | – | – | – | –
5 | CCC1(CC)Cc2c(cc(C(C)(C)C)c(O)c2C(C)(C)C)O1 [Compound d, 4,6-Di-tert-Butyl-2,2-Diethyl-5-Hydroxy-2,3-Dihydrobenzofuran] | 9.4% | 76.9% | – | – | – | – | –
6 | CCCc1c2c(c(C(C)(C)C)c(O)c1C(C)(C)C)CC(C)(C)O2 [q, 5-Hydroxy-4,6-Di-tert-Butyl-2,2-Dimethyl-7-Propyl-2,3-Dihydrobenzofuran] | 56.8% | 97.4% | 5 µM | – | – | 104.0 % of control | 73.4 % of control
7 | CC(C)(C)c1cc2c(c(C(C)(C)C)c1O)CC1(CCCCCC1)O2 [Compound o, 4,6-Di-tert-Butyl-5-Hydroxy-2,3-Dihydrobenzofuran-2-Spiro-1'-Cycloheptane] | 9.0% | 91.2% | – | – | – | – | –
8 | CC(C)C1(C(C)C)Cc2c(cc(C(C)(C)C)c(O)c2C(C)(C)C)O1 [Compound i, 4,6-Di-tert-Butyl-2,2-Di-i-Propyl-5-Hydroxy-2,3-Dihydrobenzofuran] | 10.3% | 90.8% | – | – | – | – | –
9 | CC(C)(C)c1cc(O)c(C(C)(C)C)c2c1OCC2 [Comparison 5, reference compound] | – | – | 41 µM | 21.9 % of control | 8.2 % of control | 95.3 % of control | 4.5 % of control
10 | CC(C)(C)c1cc2c(c(C(C)(C)C)c1O)CC1(CCCCC1)O2 [Compound n, 4,6-Di-tert-Butyl-5-Hydroxy-2,3-Dihydrobenzofuran-2-Spiro-1'-cyclohexane] | 15.6% | 76.2% | 9 µM | 100.3 % of control | 104.9 % of control | – | –
11 | C=CCOc1cc(C(C)(C)C)c(O)c(C(C)(C)C)c1C [Compound v, 4-Allyloxy-2,6-Di-tert-Butyl-3-Methylphenol] | 80.3% | 99.3% | – | – | – | – | –
12 | CC(C)(C)c1cc2c(cc1O)CC(C(C)(C)C)O2 (centres unmarked) [Comparison 4, reference compound] | – | – | 42 µM | – | – | – | –
13 | CC(C)(C)c1cc2occc2c(C(C)(C)C)c1O [Compound r, 4,6-Di-tert-Butyl-5-Hydroxybenzofuran] | 30.1% | 74.2% | – | – | – | – | –
14 | CC(C)(C)c1c(O)ccc2c1CC(CO)O2 (centres unmarked) [Comparison 3, reference compound] | – | – | 54 µM | – | – | – | –
15 | CCCCCC1(CCCCC)Cc2c(cc(C(C)(C)C)c(O)c2C(C)(C)C)O1 [Compound x, 4,6-Di-tert-Butyl-2,2-Di-n-Pentyl-5-Hydroxy-2,3-Dihydrobenzofuran] | 42.1% | 96.3% | 5 µM | 84.5 % of control | 85.6 % of control | – | –
16 | CCCCCCCCC1(CCCCCCCC)Cc2c(cc(C(C)(C)C)c(O)c2C(C)(C)C)O1 [Compound y, 4,6-Di-tert-Butyl-2,2-Di-n-Octyl-5-Hydroxy-2,3-Dihydrobenzofuran] | 72.3% | 85.4% | – | 94.2 % of control | 110.2 % of control | – | –
17 | CC(C)(C)c1cc2c(c(C(C)(C)C)c1O)CC(c1ccccc1)(c1ccccc1)O2 [Compound j, 4,6-Di-tert-Butyl-2,2-Diphenyl-5-Hydroxy-2,3-Dihydrobenzofuran] | 11.6% | 93.1% | – | – | – | – | –
18 | CCCCC1(CCCC)Cc2c(cc(C(C)(C)C)c(O)c2C(C)(C)C)O1 [Compound f, 4,6-Di-tert-Butyl-2,2-Di-n-Butyl-5-Hydroxy-2,3-Dihydrobenzofuran] | 12.2% | 81.6% | 8 µM | 91.0 % of control | 102.4 % of control | – | –
19 | CC1(C)Cc2c(cc(C(C)(C)C)c(O)c2C(C)(C)C)O1 [Compound c, 5-Hydroxy-4,6-Di-tert-Butyl-2,2-Dimethyl-2,3-Dihydrobenzofuran] | 9.2% | 55.3% | 7 µM | – | – | – | –
20 | CC(C)(C)c1cc2c(c(C(C)(C)C)c1O)CC(Cc1ccccc1)(Cc1ccccc1)O2 [Compound k, 4,6-Di-tert-Butyl-2,2-Dibenzyl-5-Hydroxy-2,3-Dihydrobenzofuran] | 11.1% | 93.0% | – | – | – | – | –
21 | CC(C)(C)c1cc2c(c(C(C)(C)C)c1O)CC1(CCCC1)O2 [Compound m, 4,6-Di-tert-Butyl-5-Hydroxy-2,3-Dihydrobenzofuran-2-Spiro-1'-Cyclopentane] | 11.8% | 85.3% | 7 µM | 83.1 % of control | 89.8 % of control | – | –
22 | CCCCCCCCC1Cc2c(cc(C(C)(C)C)c(O)c2C(C)(C)C)O1 (centres unmarked) [Compound g, 4,6-Di-tert-Butyl-5-Hydroxy-2-Octyl-2,3-Dihydrobenzofuran] | 8.8% | 82.6% | – | 88.6 % of control | 104.8 % of control | 97.0 % of control | 76.0 % of control
23 | Cc1cc2c(C(C)(C)C)c(O)c(C(C)(C)C)cc2o1 [Compound s, 4,6-Di-tert-Butyl-5-Hydroxy-2-Methylbenzofuran] | 39.2% | 75.7% | – | – | – | – | –
24 | Cc1c(OCCCOc2cc(C(C)(C)C)c(O)c(C(C)(C)C)c2C)cc(C(C)(C)C)c(O)c1C(C)(C)C [Compound w, 1,3-Bis(3,5-Di-tert-Butyl-4-Hydroxy-2-Methylphenoxy)propane] | 17.2% | 71.3% | – | – | – | – | –
25 | CC(C)(C)c1cc2c(C(C)(C)C)c(O)c(C(C)(C)C)cc2o1 [Compound t, 2,4,6-Tri-tert-Butyl-5-Hydroxybenzofuran] | 68.0% | 81.7% | – | – | – | – | –
26 | CC(C)(C)c1cc2c(c(C(C)(C)C)c1O)CC(C(C)(C)C)O2 (centres unmarked) [Compound h, 2,4,6-Tri-tert-Butyl-5-Hydroxy-2,3-Dihydrobenzofuran] | 10.6% | 74.0% | 9 µM | – | – | – | –
27 | CCCOc1cc(C(C)(C)C)c(O)c(C(C)(C)C)c1C [Compound u, 2,6-Di-tert-Butyl-3-Methyl-4-Propyloxyphenol] | 47.3% | 87.7% | – | – | – | – | –
28 | CC(C)(C)c1cc2c(c(C(C)(C)C)c1O)CC(CCl)O2 (centres unmarked) [l, 4,6-tert-Butyl-2-Chloromethyl-5-Hydroxy-2,3-Dihydrobenzofuran] | 8.1% | 11.5% | – | – | – | – | –

Reference: patent publication US5574178A, “4,6-Di-t-butyl-dihydrobenzofuran-5-ol and its derivatives” (Chugai Seiyaku Kabushiki Kaisha, priority 1992, dated 1996)
